Columns and labels:
[1] = system: glucose metabolism ability; settings: rat, in vivo, iv
Procedure: Fasted rats (male, SD rats) as experimental animals were divided into four groups (n=4 per group). The above-prepared ^13C-glucose solutions were individually intravenously administered to the rats in each group (1-^13-Glc-administration group, 2-^13C-Glc-administration group, 3-^13C-Glc-administration group, and U-^13-Glc-adrainistration group) in an amount of 1 mL/kg. Expired air was collected before the administration of each ^13C-glucose solution (0 minutes) and at each point in time (10, 20, 30, 40, 50, 60, 80, 100, and 120 minutes) after the administration of each ^13C-glucose solution, Δ^13C(‰) was determined with a mass spectrometer for expired air analysis (ABCA: produced by Sercon) from the concentration of ^13CO2 excreted in the expired air.
The Δ^13C(‰) was determined by measuring the ^13CO2/^12CO2 concentration ratio (δ^13C value) in the expired air before the administration of each ^13C-glucose solution (0 minutes) and in the expired air at each point in time for collecting the expired air (t minutes) after the administration of each ^13C-glucose solution, and calculating Δ^13C(‰) from the difference between the δ^13C value (δ^13Ct) at each collection point in time (t) and the δ^13C value (δ^13C0) before the administration (δ^13Ct−δ^13C0) (the same applies to the below-described Experimental Examples).

[2] = system: glucose metabolism ability; assay: Breath test under fasting and glucose-loaded conditions; assay type: in vivo, rats (OLETF, LETO)
Procedure: OLETF rats, which are diabetic animal models, were used as experimental animals, and LETO rats were used as a control. More specifically, after being fasted for 20 hours, Group 1 (control group: […], male, n=5) and Group 2 (diabetes group; OLETF rats, male, n=6) were subjected to the following test.
An aqueous U-^13C-glucose solution (50 μmol/4 mL/kg) was orally administered to Group 1 (control group) and Group 2 (diabetes group) under fasting conditions. In each group, expired air was collected before the U-^13C-glucose administration (0 minutes) and at each point in time (10, 20, 30, 40, 50, 60, 80, 100, and 120 minutes) after the U-^13C-glucose administration. Δ^13C(‰) was determined with a mass spectrometer for expired air analysis (ABCA: produced by Sercon) from the concentration of ^13CO2 excreted in the expired air.
• (2-2-1) An aqueous glucose solution (450 mg/4 mL/kg) and an aqueous U-^13C-glucose solution (50 μmol/4 mL/kg) were orally administered simultaneously to the experimental animals of (1), i.e., Group 1 (control group) and Group 2 (diabetes group). As in (2-1), expired air was collected in each group before the U-^13C-glucose administration (0 minutes) and at each, point in time (10, 20, 30, 40, 50, 60, 80, 100, and 120 minutes) after the U-^13C-glucose administration. Δ^13C(‰) was determined from the concentration of ^13CO2 excreted in the expired air. […]

[3] = system: glucose metabolism ability; assay: Evaluation of treatment effect of a therapeutic agent for diabetes with U-13C-glucose breath test; assay type: in vivo, ZDF rats; settings: 300 mg/kg oral for three days; for expired air pattern (changes in the Δ13C(‰)) after vs before administration: non-fasting, FIG. 12
Procedure: Three groups of ZDF rats (Group A: healthy group (n=4), Group B: diabetes severe onset group (n=6), and Group C: diabetes moderate onset group (n=6)) were used as experimental animals. In the experiment, these ZDF rats were allowed free access to water and feed (containing saccharide, fat, and protein) (MF: Oriental Yeast Co., Ltd.). More specifically, the following experiment was performed under non-fasting conditions.
Metformin (Wako Pure Chemical Industries, Ltd., which is an active ingredient of biguanide therapeutic agents for diabetes (generic name: Melbin), was orally administered to the rats of these groups in an amount of 300 mg/kg every morning for three days. A U-^13C-glucose solution prepared by the method described in (1) of Experimental Example 1 was intravenously administered 3 hours after the administration of metformin on day 3.
Expired air was collected in the rats of each group before the U-^13-glucose administration (0 minutes) and at each point in time (10, 20, 30, 40, 50, 60, 80, 100, and 120 minutes) after the U-^13C-glucose administration. Δ^13(‰) was determined with a mass spectrometer for expired air analysis (ABCA: produced by Sercon) from the concentration of ^13CO2 excreted in the expired air.

[4] = system: glucose metabolism ability; assay: Evaluation of treatment effect after administration of insulin with 1-13C-glucose breath test; assay type: in vivo, rats (Wistar; settings: STZ rats, FIG. 13
Procedure: A control group (Wistar rats, male, n=3) and a type 1 diabetes group (STZ rats, male, n=3) were used as experimental animals. In the experiment, these rats were allowed free access to water and feed (containing saccharide, fat, and protein) (MF: Oriental Yeast Co., Ltd.). More specifically, the following experiment was performed under non-fasting conditions.
Rats one week after STZ (streptosocin: SIGMA) were intravenously administered in an amount of 65 mg/mL/kg was used as the type 1 diabetes group (STZ rats).
Insulin (SIGMA) was subcutaneously administered to the type 1 diabetes group in an amount of 30 U/body. […] Expired air was collected in the rats of the groups (control group, type 1 diabetes group, insulin-administered 4 h-diabetes group, and insulin-administered 24 h-diabetes group) before the 1-^13C-glucose administration (0 minutes) and at each point in time (10, 20, 30, 40, 50, 60, 80, 100, and 120 minutes) after the 1-^13C-glucose administration. Δ^13C(‰) was determined with a mass spectrometer for expired air analysis (ABCA: produced by Sercon) from the concentration of ^13CO2 excreted in the expired air.

In the case of OC[C@H]1OC(O)[C@H](O)[13C@@H](O)[C@@H]1O (stereo partly drawn) [3-^13C-glucose], the “Δ13C(‰) in the expired air up to 30 minutes after the glucose solution administration (rank among 13C-glucoses)” value [1] was “highest”.
In the case of OC[C@H]1OC(O)[C@H](O)[C@@H](O)[C@@H]1O (stereo partly drawn) [U-^13C-glucose], the “difference between the Δ13C(‰) value of Group 1 (control group) and Group 2 (diabetes group)” value ([2]; fasting conditions, oral 50 μmol/4 mL/kg, FIG. 6) was “small”, the “difference in the expired air response between Group 1 (control group) and Group 2 (diabetes group)” value ([2]; rat, in vivo) was “further widened” and the “expired air pattern of Group 1 (control group) compared with Group 2 (diabetes group)” value ([2]; rat, in vivo) was “significantly high”.
In the case of CN(C)C(=N)N=C(N)N [therapeutic agent for diabetes, Metformin], the “expired air pattern (changes in the Δ13C(‰)) after vs before administration” value ([3]; Group B diabetes severe onset) was “higher values”, the “expired air pattern (changes in the Δ13C(‰)) after vs before administration” value ([3]; Group C diabetes moderate onset) was “higher values” and the glucose metabolism ability ([3]; diabetes onset groups B and C) was “enhanced”.
With “insulin: Insulin (SIGMA), subcutaneously administered” the “Δ13C(‰) compared with control group” value ([4]; 4 hours after 30 U/body subcutaneous) was “almost the same as that of the control group” and the “expired air pattern (change in the Δ13C(‰))” value ([4]; 24 hours after 30 U/body subcutaneous) was “low value”.

Source: US10228365B2, “Method for measuring carbohydrate metabolism ability, and composition for use in said method” (priority 2012, dated 2019)
